From patent US6734168B2, “Endothelial monocyte activating polypeptide II: a mediator which activates host response” (The Trustees of Columbia University in the City of New York, priority 1993, dated 2004)

Tests used:
[1] = system: human peripheral blood monocytes (MPs); assay: Mononuclear phagocyte migration in microchemotaxis chambers; assay type: cell-based
Experimental: Assessment of mononuclear phagocyte (mononuclears) and polymorphonuclear leukocyte (PMN) migration. Human peripheral blood monocytes were isolated from the blood of normal healthy volunteers (30). Blood was centrifuged on Hisopaque 1077 (Sigma, St. Louis, Mo.), the mononuclear fraction was obtained, washed twice in Earle's balanced salt solution, resuspended in RPMI 1640 containing human serum (10%; Gemini, Calabasas, Calif.), plated on tissue culture dishes and incubated at 37° C. for 1-2 hrs. Nonadherent cells were removed by washing the plate twice with balanced salt solution, and adherent cells were harvested by incubation with calcium-magnesium free buffer containing EDTA (2 mM) for 15 min at 37° C., followed by extensive washing. PMNs were prepared by centrifugation over Hisopaque 1119 as per the manufacturer's protocol (Sigma). Chemotaxis assays were performed in microchemotaxis chamber (NeuroProbe, Bethesda, Md.) containing Nucleopore polycarbonate membranes (5 μm; Nucleopore, Pleasonton, Calif.). Mononuclears or PMNs were suspended in RPMI 1640 containing fetal bovine serum (1%) and 10^4 cells were added per well to the upper chamber. The chemotactic stimulus was added to the indicated chamber, and assays were performed in quadruplicate over a 3 hr or 45 min incubation period at 37° C., with mononuclear cells or PMNs, respectively, after which non-migrating cells were removed, membranes were fixed in methanol, migrating cells were visualized with Wright's stain. Cells in nine high-power fields were counted, and the mean and standard error of the mean (SEM) were determined.
Cell migration was studied by adding MPs or PMNs (10^4 cells/well) resuspended in RPMI 1640 with fetal calf serum (1%; Gemini) to the upper wells of a microchemotaxis chamber (Neuro Probe, Bethesda, Md.) containing Nucleopore polycarbonate membranes (5 μm, Nucleopore, Pleasanton Calif.), as described (7,29-30). The chemotactic stimulus was placed in the upper or lower chamber, as indicated, and cells were allowed to migrate for 3 hrs (for MPs) or 45 min (for PMNs) at 37° C. Following removal of non-migrating cells, membranes were fixed in methanol and migrating cells were visualized with Wright's stain. Assays were performed in quadruplicate, and cells were counted in nine high-power fields in each case (mean±SEM is shown in the figures).
Migration of PMNs and MPs—Migration was studied using cells (10^4 and 10^3 cells/well form PMNs and MPs, respectively) resuspended in RPMI 1640 with fetal calf serum (1%) added to the upper wells of a microchemotaxis chamber (Neuro Probe, Bethesda, Md.) containing Nucleopore polycarbonate membranes (5 um, Nucleopor, Pleasanton, Calif.), as described (13, 22, 35). The stimulus was placed in the upper or lower chamber, as indicated, and the cells were allowed to migrate for 3 h (for MPs) or 45 min (for PMNs) at 37° C. Following removal of nonmigrating cells, membranes were fixed in methanol, and migrating cells were visualized with Wright's stain. Assays were performed in quadruplicate, and cells were counted in […] high-power fields in each case (mean±S.E. is shown in the figures).

mouse footpad = assay: Injection of peptides and peptide-albumin conjugates into mouse footpads; assay type: in vivo; settings: unconjugated peptide
Experimental: Preparation and implantation of peptide-albumin conjugates into mice. Peptide-albumin conjugates (made with either […], […] or […]) (SEQ ID NO. 16) were prepared using glutaraldehyde as described (39). In brief, mouse serum albumin (50 μg) was incubated with glutaraldehyde (450 μg) and the indicated peptide (200 μg) in NaCl (0.1 M) Tris (0.05 N; pH 7.3) for 10 min at room temperature. Excess lysine was added (final concentration, 0.5 M), and the albumin-peptide conjugates were dialyzed exhaustively versus phosphate-buffered saline. BALB/c mice (6-12 weeks) each received an injection into the footpad (7,40-41) of 0.05 ml of a solution of either (i) albumin-peptide conjugate (50 μg, total protein/footpad), (ii) albumin treated with glutaraldehyde in an identical fashion, except that no peptide was present (50 μg, total protein/footpad), (iii) native albumin (50 μg total protein/footpad), or (iv) buffer alone. At the indicated time, animals were sacrificed by humane euthanasia, footpads were harvested, fixed in buffered formalin (10%), decalcified, and embedded in paraffin. Sections were stained with hematoxylin and eosin.

## ASRLDLRIGRIVTAKY [residues #6-20 from EMAP II, Cys to Arg substitution at position #15, and a C-terminal Tyr]
[1]; microchemotaxis chamber, 3 hrs at 37° C.
  Induction of MP (mononuclear cell) migration (chemotaxis): induce chemotaxis
[1]; peptide 100 pM
  MP migration at 100 pM peptide relative to FMLP at 1 μM: similar
Mouse footpad
  Inflammatory response to free peptide injected subcutaneously into mice: at most a transient inflammatory response
